Entries after “also recorded” stand apart in the source; their conditions may differ. *1 amine or outer side, *2 acyl side, *3 side chain or, on linkers, in order; H or OH if unused. Where a SMILES comes first, the peptide text is derived from it. [ ]: non-standard residue; d: D form. Leu(5,5,5,5',5',5'-F6) = N[C@@H](CC(C(F)(F)F)C(F)(F)F)C(=O)O; X1 = C[C@@H](CC(F)(F)F)[C@H](N[*:1])C(=O)[*:2]; 2Abz = Nc1ccccc1C(=O)O
What was measured:
[1] = molecular target: pepsin (EC 3.4.23.1) (Sus scrofa, UniProt P00791); assay: in vitro
Sequence of pepsin (EC 3.4.23.1) (Sus scrofa, UniProt P00791) (P00791 60-385): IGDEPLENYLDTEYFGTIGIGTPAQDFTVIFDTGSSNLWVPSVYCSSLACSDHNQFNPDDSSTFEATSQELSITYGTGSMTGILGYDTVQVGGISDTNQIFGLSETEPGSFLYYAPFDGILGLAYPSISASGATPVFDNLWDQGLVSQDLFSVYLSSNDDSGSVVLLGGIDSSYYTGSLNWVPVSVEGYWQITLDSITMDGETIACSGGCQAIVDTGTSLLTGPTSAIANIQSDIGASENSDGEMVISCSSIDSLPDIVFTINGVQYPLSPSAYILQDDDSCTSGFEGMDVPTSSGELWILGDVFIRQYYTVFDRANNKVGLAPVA
Description: (§1) The course of proteolytic digestion was characterized by an analytical HPLC-assay with fluorescence detection. For quantification of substrate degradation, integration of the corresponding HPLC peak was conducted. Cleavage products were identified by ESI–ToF mass spectrometry (see Supporting Information File 1, Tables S4–S7).
(§2) All peptides employed in the degradation studies were used as the TFA salts obtained after lyophilization. Stock solutions of α-chymotrypsin (from bovine pancreas, EC 3.4.21.1, ≥40.0 units/mg of protein, Sigma Aldrich, St. Louis, MO, USA), and pepsin (from porcine stomach mucosa, EC 3.4.23.1, ≥250 units/mg of protein, Sigma Aldrich, St. Louis, MO, USA) were prepared at concentrations of 1 mg/mL in phosphate buffer (10 mM, pH 7.4), or in acetate buffer (10 mM, pH 4.0), respectively. For proteinase K (from tritirachium album, EC 3.4.21.64, ≥30 units/mg of protein, Sigma Aldrich, St. Louis, MO, USA) and elastase (from porcine pancreas, EC 3.4.21.36, 6.2 units/mg of protein, Sigma Aldrich, St. Louis, MO, USA) stock solutions were prepared also at concentrations of 1 mg/mL in tris/HCl (50 mM) + CaCl2 (10 mM) buffer (pH 7.5), or in tris/HCl buffer (100 mM, pH 8.4), respectively. Peptides (0.002 mmol) were prepared as stocks in DMSO (100 µL) and incubated with the respective enzyme at 30 °C (for α-chymotrypsin and pepsin) or 37 °C (for proteinase K and elastase) with shaking at 300 rpm in a thermomixer over a period of 24 h. The reaction mixture consisted of DMSO (15 µL), corresponding buffer (25 µL), peptide solution (5 µL) and the corresponding enzyme solution (5 µL). […] Aliquots of 5 µL were taken at fixed time points (0, 15, 30, 60, 90, 120 min as well as 3 h and 24 h) and either quenched with ACN containing 0.1% (v/v) TFA (95 µL), in the case of α-chymotrypsin, proteinase K and elastase, or 2% aqueous ammonia (95 µL), in the case of pepsin. All samples were subjected to analytical HPLC on a LaChrom-ELITE-HPLC-System equipped with a fluorescence detector (VWR International Hitachi, Darmstadt, Germany). A monolithic reversed-phase C8 Chromolith® Performance HPLC column (100 × 4.6 mm, Merck KGaA, Darmstadt, Germany) was used to resolve and quantify the products of digestion. The used system and gradients are described in detail in Supporting Information File 1. Detection based on the Abz label was carried out using a fluorescence detector with λex = 320 nm and λem = 420 nm. In all cases, the peaks corresponding to the starting materials (full-length peptides) or the N-terminal fragments (products) were integrated and used to determine the velocity of the reaction (see Supporting Information File 1). […] Each fragment cleaved from the full-length peptide was identified by ESI–ToF mass analysis on an Agilent 6220 ESI–ToF–MS spectrometer (Agilent Technologies, Santa Clara, CA, USA, see Supporting Information File 1). All experiments were performed in triplicate.
(§3) 2130) with solvent degasser, an autosampler (L-2200) with a 100 µL sample loop, a diode array flow detector (L-2455), a fluorescence detector (L-2485) and a high pressure gradient mixer. As eluents water and ACN, both containing 0.1% (v/v) TFA were used, and a flow rate of 3 mL/min was applied. The used linear gradients are […]
(§4) For the non-fluorinated peptides method A was used to follow the digestion process, and for the fluorinated peptides method B was applied. For […]
(§5) The obtained data were analyzed with EZChrom Elite software
(§6) (version 3.3.2, Agilent Technologies, Santa Clara, CA, USA).

[2] = molecular target: T1, α-chymotrypsin (EC 3.4.21.1) (Bos taurus, UniProt P00766); assay: Protease digestion assay with α-chymotrypsin (FL-RP-HPLC); assay type: in vitro ADME, bovine
T1 construct: purchased Sigma Aldrich; host or cells: bovine pancreas
Description: The FA peptide was used as a reference. […] All experiments were performed in triplicate.
The used linear gradients are
chromatograms where an insufficient baseline separation was observed,
(proteinase K)]. The obtained data were analyzed with EZChrom Elite software
Method Time [min] Water + 0.1% (v/v) TFA [%] ACN + 0.1% (v/v) TFA [%]

[3] = molecular target: elastase (EC 3.4.21.36) (Sus scrofa, UniProt P00772); conditions: elastase, 100 mM Tris/HCl buffer pH 8.4, 37 °C; for Proteolytic stability compared to control peptide FA after 24 h: FL-RP-HPLC; for Gain in stability upon fluorination compared to the non-fluorinated (Leu or Ile) analogue, 24 h: after 24 h
Sequence of elastase (EC 3.4.21.36) (Sus scrofa, UniProt P00772) (P00772 27-266): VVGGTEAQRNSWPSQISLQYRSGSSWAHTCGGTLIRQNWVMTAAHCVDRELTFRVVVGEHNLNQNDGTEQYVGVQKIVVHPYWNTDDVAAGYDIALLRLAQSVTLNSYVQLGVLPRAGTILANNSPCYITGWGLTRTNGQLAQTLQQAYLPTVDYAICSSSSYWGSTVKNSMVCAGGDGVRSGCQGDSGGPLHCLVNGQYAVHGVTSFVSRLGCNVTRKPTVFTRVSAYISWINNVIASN
Description: as §1, §2, §3, §4, §5, §6

[4] = system: pepsin (EC 3.4.23.1); assay: pepsin in 10 mM acetate buffer, pH 4.0; conditions: porcine stomach mucosa, 30 °C, up to 24 h
[5] = system: elastase (EC 3.4.21.36); assay: elastase in 100 mM Tris/HCl buffer, pH 8.4; conditions: porcine pancreas, 37 °C, up to 24 h
[6] = system: α-chymotrypsin (EC 3.4.21.1); assay: α-chymotrypsin in 10 mM phosphate buffer, pH 7.4; conditions: bovine pancreas, 30 °C, up to 24 h
[7] = system: proteinase K (EC 3.4.21.64); assay: proteinase K in 50 mM Tris/HCl buffer, containing 10 mM CaCl2 pH 7.5; conditions: tritirachium album, 37 °C, up to 24 h

Compound	cleaved bond [4]	cleaved bond [5]	cleaved bond [6]	cleaved bond [7]	not cleaved [5]	also measured
C[C@H](NC(=O)[C@H](C)NC(=O)[C@H](C)NC(=O)[C@H](Cc1ccccc1)NC(=O)[C@H](C)NC(=O)[C@H](C)NC(=O)[C@H](CCCCN)NC(=O)c1ccccc1N)C(=O)N[C@@H](C)C(=O)N[C@@H](CCCCN)C(=O)O [FA] (H-[2Abz]KAAFAAAAK-OH)						Percentage of substrate remaining after incubation for 24 h ([1]; pepsin (porcine stomach mucosa), 10 mM acetate buffer pH 4.0 with DMSO, 30 °C, 24 h, FL-RP-HPLC peak integration (Abz, λex 320/λem 420 nm), average of three independent measurements): almost completely degraded
C[C@H](NC(=O)[C@H](C)NC(=O)[C@H](CC(C(F)(F)F)C(F)(F)F)NC(=O)[C@H](Cc1ccccc1)NC(=O)[C@H](C)NC(=O)[C@H](C)NC(=O)[C@H](CCCCN)NC(=O)c1ccccc1N)C(=O)N[C@@H](C)C(=O)N[C@@H](CCCCN)C(=O)O [P1’-HfLeuFA] (H-[2Abz]KAAF[Leu(5,5,5,5',5',5'-F6)]AAAK-OH)						Gain in proteolytic stability upon fluorination compared to the non-fluorinated (Leu or Ile) analogue ([2]; α-chymotrypsin, 10 mM phosphate buffer pH 7.4, 30 °C, after 24 h, FL-RP-HPLC): better substrate than the non-fluorinated Leu peptide; Proteolytic stability compared to control peptide FA after 120 min ([1]; pepsin, 10 mM acetate buffer pH 4.0, 30 °C, 120 min, FL-RP-HPLC): same persistence; Proteolytic stability compared to control peptide FA after 24 h ([1]; pepsin, 10 mM acetate buffer pH 4.0, 30 °C, 24 h, FL-RP-HPLC): somewhat more stable than the control FA; Stabilization upon fluorination compared to the non-fluorinated analogue, 120 min ([1]; pepsin, 10 mM acetate buffer pH 4.0, 30 °C, after 120 min): about 20%; Destabilization compared to the hydrocarbon analogue, 24 h ([1]; pepsin, 10 mM acetate buffer pH 4.0, 30 °C, after 24 h): 17%; Proteolytic stability compared to control peptide FA after 24 h [3]: more stable than the control peptide FA; Gain in stability upon fluorination compared to the non-fluorinated (Leu or Ile) analogue, 24 h [3]: 85%
CC[C@H](C)[C@H](NC(=O)[C@H](Cc1ccccc1)NC(=O)[C@H](C)NC(=O)[C@H](C)NC(=O)[C@H](CCCCN)NC(=O)c1ccccc1N)C(=O)N[C@@H](C)C(=O)N[C@@H](C)C(=O)N[C@@H](C)C(=O)N[C@@H](CCCCN)C(=O)O [P1’-IleFA] (H-[2Abz]KAAFIAAAK-OH)						Proteolytic stability compared to control peptide FA after 24 h [3]: more stable than the control peptide FA
C[C@H](NC(=O)[C@H](C)NC(=O)[C@@H](NC(=O)[C@H](Cc1ccccc1)NC(=O)[C@H](C)NC(=O)[C@H](C)NC(=O)[C@H](CCCCN)NC(=O)c1ccccc1N)[C@@H](C)CC(F)(F)F)C(=O)N[C@@H](C)C(=O)N[C@@H](CCCCN)C(=O)O [P1’-TfIleFA] (H-[2Abz]KAAF[X1]AAAK-OH)						Proteolytic stability compared to control peptide FA after 24 h [3]: comparably stable; Gain in stability upon fluorination compared to the non-fluorinated (Leu or Ile) analogue, 24 h [3]: accelerates enzymatic degradation
CC(C)C[C@H](NC(=O)[C@H](C)NC(=O)[C@H](CCCCN)NC(=O)c1ccccc1N)C(=O)N[C@@H](Cc1ccccc1)C(=O)N[C@@H](C)C(=O)N[C@@H](C)C(=O)N[C@@H](C)C(=O)N[C@@H](C)C(=O)N[C@@H](CCCCN)C(=O)O [P2-LeuFA] (H-[2Abz]KALFAAAAK-OH)						Percentage of substrate remaining after incubation for 24 h ([2]; α-chymotrypsin (bovine pancreas), 10 mM phosphate buffer pH 7.4 with DMSO, 30 °C, 24 h, FL-RP-HPLC peak integration (Abz, λex 320/λem 420 nm), average of three independent measurements): complete proteolysis
Abz-KAAFAAAAK	F-A	A-A	F-A, major	A-A	no fragments with Phe in the P1 position observed	
Abz-KAAFIleAAAK		A-F and A-A	F-Ile, major	A-F and A-A	no fragments with Phe in the P1 position observed	
Abz-KAAFLeuAAAK	F-Leu; also recorded: Leu-Ala	K-A and A-A and A-F and A-K	F-Leu, major; also recorded: Leu-A	A-F and A-A	no fragments with Phe in the P1 position observed	
Abz-KAAFTfIleAAAK	F-TfIle	A-A	F-TfIle, major	A-F and A-A	no fragments with Phe in the P1 position observed	

Further lines, with some results ahead:

cleaved bond [4]	cleaved bond [5]	cleaved bond [6]	cleaved bond [7]	Compound	not cleaved [5]	also measured
A-HfLeu	K-A and A-A and A-F and A-HfLeu	F-A, major	A-HfLeu; also recorded: HfLeu-A	Abz-KAAFAHfLeuAAK	no fragments with Phe in the P1 position observed	not cleaved [4]: not hydrolyzed at the designed cleavage site
F-A	A-F and Ile-A and A-A and A-K	F-A, major	A-F and A-Ile	Abz-KAAFAIleAAK	no fragments with Phe in the P1 position observed	
F-A and A-TfIle and A-F	A-F and TfIle-A	F-A, major	A-F	Abz-KAAFATfIleAAK	no fragments with Phe in the P1 position observed	
F-HfLeu; also recorded: HfLeu-Ala	K-A and A-A	F-HfLeu, major; also recorded: HfLeu-A	A-F	Abz-KAAFHfLeuAAAK	no fragments with Phe in the P1 position observed	
F-A and HfLeu-F	HfLeu-F and A-A		HfLeu-F and A-A	Abz-KAHfLeuFAAAAK	no fragments with Phe in the P1 position observed	not cleaved [6]: not digested at all
F-A	Ile-F and A-A and A-K	F-A, major	F-A	Abz-KAIleFAAAAK	no fragments with Phe in the P1 position observed	
F-A	A-Leu and A-A and A-K	F-A, major	Leu-F and A-A	Abz-KALeuFAAAAK		
	TfIle-F and A-A		F-A and A-A	Abz-KATfIleFAAAAK	no fragments with Phe in the P1 position observed	not cleaved [4]: 100% after 24 h; not cleaved [6]: not digested at all

Reference: publication PMC5753150 (Beilstein Journal of Organic Chemistry, 2017)
